Tested on: kidney uptake of [177Lu-DOTA0,Tyr3]octreotate
Experiment: Kidney uptake of [177Lu-DOTA0,Tyr3]octreotate measured by NanoSPECT in rats
Format: in vivo, Male Lewis rats
Method: For reduction of kidney rats were injected with 20 mg Gelofusine, 100 mg lysine or the combination. Kidney uptake was measured by SPECT scans with a […] multi-pinhole camera (NanoSPECT, Bioscan) at 24 h, 5 and 7 days pi. Kidney uptake was quantified by VOI analysis.

## NCCCC[C@H](N)C(=O)O [lysine]
24 h pi, 555 MBq, 20 mg Gelofusine, 100 mg lysine or the combination, SPECT VOI analysis
  inhibition of kidney uptake of [177Lu-DOTA0,Tyr3]octreotate: 37%±6%
rats, overdose of lysine alone
  reduction of kidney uptake with an overdose of lysine alone: did not improve the reduction of the kidney uptake

Source: US8293873B2, “Combination of amino acid solution and a gelatin derivative for inhibiting renal up-take” (BioSynthema Inc., priority 2006, dated 2012)
